From paper PMC4489319 (ACS Infectious Diseases, 2015)

T1: ChsE4 (Rv3504, formerly FadE26), N-terminal His6 tag (Mycobacterium tuberculosis H37Rv, UniProt I6YCA3 1-400)
T1 sequence: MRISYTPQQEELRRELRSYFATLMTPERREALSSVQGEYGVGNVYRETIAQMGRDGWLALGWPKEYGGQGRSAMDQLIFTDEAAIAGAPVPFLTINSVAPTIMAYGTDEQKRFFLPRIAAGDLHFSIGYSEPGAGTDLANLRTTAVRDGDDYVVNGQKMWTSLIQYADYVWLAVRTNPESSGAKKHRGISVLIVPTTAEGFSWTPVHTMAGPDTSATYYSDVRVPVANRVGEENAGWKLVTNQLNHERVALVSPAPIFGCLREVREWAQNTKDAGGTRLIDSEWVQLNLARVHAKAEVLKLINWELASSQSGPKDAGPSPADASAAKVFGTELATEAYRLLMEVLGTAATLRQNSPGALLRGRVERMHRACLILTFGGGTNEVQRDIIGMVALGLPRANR


Key:
ChsE4-ChsE5 = ChsE4-ChsE5 (Mycobacterium tuberculosis, UniProt I6YCA3)
[1] = molecular target: T1, ChsE4 (Rv3504, formerly FadE26), …; test: AUC + other: LC/UV/MS

| Molecule | KM (ChsE4-ChsE5) | binding result [1] |
| --- | --- | --- |
| CC(CCC[C@@H](C)[C@H]1CC[C@H]2[C@@H]3CCC4=CC(=O)CC[C@]4(C)[C@H]3CC[C@]12C)C(=O)SCCNC(=O)CCNC(=O)[C@H](O)C(C)(C)COP(=O)(O)OP(=O)(O)OC[C@H]1O[C@@H](n2cnc3c(N)ncnc32)[C@H](O)[C@@H]1OP(=O)(O)O (some centres unmarked) [3-OCS-CoA] | 20 ± 2.7 µM | – |
| ChsE5 (Rv3505, formerly FadE27) (enzyme) MDFTTTEAAQDLGGLVDTIVDAVCTPEHQRELDKLEQRFDRELWRKLIDAGILSSAAPESLGGDGFGVLEQVAVLVALGHQLAAVPYLESVVLAAGALARFGSPELQQGWGVSAVSGDRILTVALDGEMGEGPVQAAGTGHGYRLTGTRTQVGYGPVADAFLVPAETDSGAAVFLVAAGDPGVAVTALATTGLGSVGHLELNGAKVDAARRVGGTDVAVWLGTLSTLSRTAFQLGVLERGLQMTAEYARTREQFDRPIGSFQAVGQRLADGYIDVKGLRLTLTQAAWRVAEDSLASRECPQPADIDVATAGFWAAEAGHRVAHTIVHVHGGVGVDTDHPVHRYFLAAKQTEFALGGATGQLRRIGRELAETPA | – | binds |
